In brackets after ≈: the same amount, converted by molar mass. Read-outs that look alike come from different tables or passages of the source. *1 amine or outer side, *2 acyl side, *3 side chain or, on linkers, in order; H or OH if unused. Where a SMILES comes first, the peptide text is derived from it. Bridges are numbered along the chain shown (N, C = ends). Roman numbers before positions name the chains, in order. [ ]: non-standard residue; d: D form. X4 = C#CCOCCOCCOCCOCCNC(=O)CN(CC(=O)[*:1])CC(=O)[*:2]; X1 = CCCCCC[C@@H](O)[C@H](N[*:1])C(=O)[*:2]; dCha = N[C@H](CC1CCCCC1)C(=O)O; Nle = CCCC[C@H](N)C(=O)O; Dab = NCC[C@H](N)C(=O)O; azaGly = NNC(=O)O
Key:
Ab AB5075 = type: cell-based, Acinetobacter baumannii; details: for MIC in RPMI AB 5075: pH 7.4
Procedure: (§1) Briefly, stock solutions of all antibacterial agents were prepared fresh in appropriate solvents (i.e. PBS, pH 7.4, DMSO, DI, etc.). Stock concentrations for drug conjugates were made at 12.5× the highest final assay concentration. All were serially diluted 2-fold, 8 or 12 times in a 96-well PCR plate (VWR cat. no. 83007-374). Bacterial cell suspensions generated from Mueller-Hinton agar (MHA) plate cultures were prepared in 0.85% saline and adjusted to ˜0.1 OD600 nm. […] For the conjugates, 92 μL of each cell suspension in RPMI B were added in the same 96-well plate assay format. […] Compounds were tested against a 14-strain panel comprised of E. coli (Ec), A. baumannii (Ab), P. aeruginosa (Pa), and K. pneumoniae (Kp) that were obtained from ATCC (Ec 25922, Ec 2489, Ab 19606, Pa 27853, Pa PAO1, Kp 43816, Kp 10031), Centers for Disease Control and Prevention (Ec AR0349), BEI Resources (Ab AB5075), Micromyx LLC (Ab 8990, Kp 6951), and Belgian Coordinated Collections of Microorganisms (Pa LES431) or generated in-house (Ec 25922 64X-1). […] E. coli strain ATCC 25922 and P. aeruginosa strain LES431 were run in the presence and absence of 50% heat-inactivated fetal bovine serum (FBS; Sigma, cat. no. F4135-100 mL). Plates were mixed by shaking then incubated at 35° C. overnight (16-20 h).

Ab 8990 (COL^R) = type: cell-based, Acinetobacter baumannii
Procedure: as §1

[1] = system: Ab AB58705 (COL^R) IpxD, mut. (no LPS); type: cell-based, Acinetobacter baumannii; details: media CA-MHB
A. baumannii AB5075 = type: cell-based
Procedure: (§2) Overnight stationary-phase cultures were centrifuged at 3,500×g for 10 min at room temperature and resuspended in 1×PBS to an optical density at 600 nm (OD600) of 0.4 (1×10^8 colony forming units [CFU]/ml) in RPMI with L-glutamine and phenol red (Life Technologies). Bacteria were diluted 1:25 in RPMI ([…]) and 10 ul added to wells of a non-binding 96-well plate (Corning 3641) containing 80 ul of 50% hirudin anti-coagulated blood (complement active) in RPMI. […] MBC was defined as the minimum conjugate concentration required for bacterial clearance (Table 8A and Table 8B). An untreated growth control (40% blood, 0 ug/ml conjugate) was included in all assays as a growth comparator.
(§3) MBC was defined as the minimum compound concentration required for complete bacterial clearance (Table 18).
(§4) In most cases, 2-4 fold improvements in antibacterial activity for the conjugates are observed in the presence of complement active human blood.

E. coli ATCC 25922 = type: cell-based
Procedure: as §2, §3, §4

P. aeruginosa PAO1 = type: cell-based
Procedure: as §2, §3, §4

Pa PAO1 = type: cell-based, Pseudomonas aeruginosa; details: for MIC: PAO1; for MIC in RPMI PA 01: PAO1, pH 7.4
Procedure: as §1

Pa LES431 = type: cell-based, Pseudomonas aeruginosa
Procedure: as §1

Pa 27853 = type: cell-based, Pseudomonas aeruginosa
Procedure: as §1

Ab 19606 (COLhet^R) = type: cell-based, Acinetobacter baumannii; details: media CA-MHB
Procedure: (§5) Briefly, stock solutions of all antibacterial agents were prepared fresh in appropriate solvents (i.e. PBS, pH 7.4, DMSO, DI, etc.). Stock concentrations for drug conjugates were made at 12.5× the highest final assay concentration. All were serially diluted 2-fold, 8 or 12 times in a 96-well PCR plate (VWR cat. no. 83007-374). Bacterial cell suspensions generated from Mueller-Hinton agar (MHA) plate cultures were prepared in 0.85% saline and adjusted to ˜0.1 OD600 nm. Next, cell suspensions were diluted 1:200 in RPMI containing 5% Luria Broth (LB) to improve bacterial growth (BD Difco, cat. no. 244620) to a concentration of ˜5×10^5 CFU (colony-forming units)/mL. Due to poor solubility in Mueller-Hinton broth media, drug conjugates were evaluated in RPMI 1640 medium (+) L-glutamine, (+) sodium bicarbonate, pH 7.4 (“RPMI B”; Gibco, cat. no. 11875-085) as has been described as a more physiologically-relevant media for susceptibility testing of antibacterial compounds (1). For the conjugates, 92 μL of each cell suspension in RPMI B were added in the same 96-well plate assay format. […] Compounds were tested against a 14-strain panel comprised of E. coli (Ec), A. baumannii (Ab), P. aeruginosa (Pa), and K. pneumoniae (Kp) that were obtained from ATCC (Ec 25922, Ec 2489, Ab 19606, Pa 27853, Pa PAO1, Kp 43816, Kp 10031), Centers for Disease Control and Prevention (Ec AR0349), BEI Resources (Ab AB5075), Micromyx LLC (Ab 8990, Kp 6951), and Belgian Coordinated Collections of Microorganisms (Pa LES431) or generated in-house (Ec 25922 64X-1). […] E. coli strain ATCC 25922 and P. aeruginosa strain LES431 were run in the presence and absence of 50% heat-inactivated fetal bovine serum (FBS; Sigma, cat. no. F4135-100 mL). Plates were mixed by shaking then incubated at 35° C. overnight (16-20 h).

Ec 25922 = type: cell-based, Escherichia coli; details: for MIC in RPMI EC 25922: pH 7.4
Procedure: as §1

Ec 2469 = type: cell-based, Escherichia coli
Procedure: as §1

Sa RN = type: cell-based
Ec AR0349 (mcr-1, COL^R) = type: cell-based, Escherichia coli; details: media CA-MHB
Procedure: as §5

Ec 25922 64X-1 (COL^R) = type: cell-based, Escherichia coli; details: media CA-MHB
Procedure: as §5

Kp 43816 = type: cell-based, Klebsiella pneumoniae
Procedure: as §1

Kp 6951 (COL^R) = type: cell-based, Klebsiella pneumoniae
Procedure: as §1

Kp 10031 = type: cell-based, Klebsiella pneumoniae
Procedure: as §1

| SMILES | MIC (Ab AB5075) [µg/mL] | MIC in RPMI AB 5075 (Ab AB5075) [µg/mL] | MIC [1] [µg/mL] | MBC in blood AB 5075 (A. baumannii AB5075) [µg/mL] | MBC in blood EC 25922 (E. coli ATCC 25922) [µg/mL] | MBC in blood PA 01 (P. aeruginosa PAO1) [µg/mL] | MIC (Pa PAO1) [µg/mL] | MIC in RPMI PA 01 (Pa PAO1) [µg/mL] | MIC (Pa LES431) [µg/mL] | MIC (Pa 27853) [µg/mL] | MIC (Ab 19606 (COLhet^R)) [µg/mL] | MIC (Ec 25922) [µg/mL] | MIC in RPMI EC 25922 (Ec 25922) [µg/mL] | MIC (Ec 2469) [µg/mL] | MIC (Sa RN) [µg/mL] | MIC (Ec AR0349 (mcr-1, COL^R)) [µg/mL] | MIC (Ec 25922 64X-1 (COL^R)) [µg/mL] | MIC (Kp 43816) [µg/mL] | MIC (Kp 10031) [µg/mL] | also measured |
| --- | --- | --- | --- | --- | --- | --- | --- | --- | --- | --- | --- | --- | --- | --- | --- | --- | --- | --- | --- | --- |
| C#CCOCCOCCOCCOCCNC(=O)CN(CC(=O)N[C@@H](CCCC)C(=O)N[C@@H](CCN)C(=O)N[C@H](C(=O)NNC(=O)N[C@H]1CCNC(=O)[C@H]([C@@H](C)O)NC(=O)[C@H](CCN)NC(=O)[C@H](CCN)NC(=O)[C@H](CC(C)C)NC(=O)[C@@H](CC2CCCCC2)NC(=O)[C@H](CCN)NC1=O)[C@H](O)CCCCCC)CC(=O)N[C@@H](CCCC)C(=O)N[C@@H](CCN)C(=O)N[C@H](C(=O)NNC(=O)N[C@H]1CCNC(=O)[C@H]([C@@H](C)O)NC(=O)[C@H](CCN)NC(=O)[C@H](CCN)NC(=O)[C@H](CC(C)C)NC(=O)[C@@H](CC2CCCCC2)NC(=O)[C@H](CCN)NC1=O)[C@H](O)CCCCCC [Int-117] (I: [Nle][Dab][X1][azaGly][Dab][Dab][dCha]L[Dab][Dab]T / II: [Nle][Dab][X1][azaGly][Dab][Dab][dCha]L[Dab][Dab]T; lactam I:5-I:C, II:5-II:C; linker I:N-II:N via X4) | 8 (≈ 2.87 µM) | 1.08 (≈ 0.387 µM) | 8 (≈ 2.87 µM) | >0.2 | >0.2 | >0.2 | 16 (≈ 5.74 µM) | 2.16 (≈ 0.774 µM) | 4 (≈ 1.43 µM) | 8 (≈ 2.87 µM) | 8 (≈ 2.87 µM) | 8 (≈ 2.87 µM) | 1.08 (≈ 0.387 µM) | 8 (≈ 2.87 µM) | 16 (≈ 5.74 µM) | 8 (≈ 2.87 µM) | 8 (≈ 2.87 µM) | 8 (≈ 2.87 µM) | 8 (≈ 2.87 µM) | MIC (Ab 8990 (COL^R)): 8 µg/mL (≈ 2.87 µM); MIC (Kp 6951 (COL^R)): 16 µg/mL (≈ 5.74 µM) |
| C#CCOCCOCCOCCOCCC(=O)Nc1nc(C)c(C(=O)N[C@@H](CCCC)C(=O)C[C@@H](CCN)C(=O)N[C@H](C(=O)NC(CCCN)C(=O)N[C@H]2CCNC(=O)[C@H]([C@@H](C)O)NC(=O)[C@H](CCN)NC(=O)[C@H](CCN)NC(=O)[C@H](CC(C)C)CC(=O)[C@@H](Cc3ccccc3)NC(=O)[C@H](CCN)CC2=O)[C@@H](C)O)s1 (stereo partly drawn) [Int-125] | 2 (≈ 1.27 µM) | 1.88 (≈ 1.2 µM) | 32 (≈ 20.4 µM) | 0.1 (≈ 0.0637 µM) | 0.05 (≈ 0.0318 µM) | 0.2 (≈ 0.127 µM) | 2 (≈ 1.27 µM) | 3.76 (≈ 2.4 µM) | 1 (≈ 0.637 µM) | 2 (≈ 1.27 µM) | 4 (≈ 2.55 µM) | 1 (≈ 0.637 µM) | 0.94 (≈ 0.599 µM) | 1 (≈ 0.637 µM) | >128 | 16 (≈ 10.2 µM) | 64 (≈ 40.8 µM) | 1 (≈ 0.637 µM) | 1 (≈ 0.637 µM) | MIC (Ab 8990 (COL^R); Ab 8990 (COL^R), media CA-MHB): >128 µg/mL; MIC (Kp 6951 (COL^R); Kp 6951 (COL^R), media CA-MHB): >128 µg/mL |

Reference: patent US20230165970A1, “COMPOSITIONS AND METHODS FOR THE TREATMENT OF BACTERIAL INFECTIONS” (priority 2017, published 2023)
